Data set [1] can be described thus: Cytotoxicity assay (CCK-8). The class given is cell-based, human. The note with it: human, HepG2 cells; HepG2, 72 h. Here is the method: (§1) HepG2 cells (National Collection of Authenticated Cell Cultures) were cultured in Minimum Essential Medium (Gibco) supplemented with 10% of fetal bovine serum, 100 U·mL^−1 penicillin, 100 U·mL^−1 streptomycin (Gibco), 2 mM L-Glutamine (Gibco), 1× NEAA (Gibco) and 1 mM Sodium Pyruvate (Gibco). The cells were hemi-depleted each week with fresh medium and maintained at 1 ~ 2 × 10^6 cells/mL in 6-cm dishes at 37 °C and 5% CO2. Tested with MycoBlue Mycoplasma Detector D101 (Vazyme), the cells were free from mycoplasma contamination.
(§2) Cell viability was analyzed by Cell Counting Kit-8 (CCK8, ApexBio) according to the manufacturer’s protocols. Cells were seeded and cultured at a density of 2.5 × 10^3 cells per well in 100 μL medium in 96-well microplates (Corning). Then, the cells were treated with different concentrations of compound (0, 1 μM, 3 μM, 10 μM, 100 μM, 300 μM). […] After treatment for 72 h, 10 μL of CCK-8 reagent was added to each well and then cultured for 4 h. All experiments were performed in pentaplicate. The absorbance was analyzed at 450 nm using a microplate reader (Tecan) using medium without cells as blanks. Data was processed using GraphPad Prism 9.

The target in data set [2] is T1, PfLysRS (Plasmodium falciparum, UniProt Q8IDJ8).
T1 construct: PfLysRS (77–583) was constructed in the vector pET20b, with a C-terminal 6×His tag; 6xHis (C); made in house; host or cells: E. coli BL21 (DE3)
The data set is described as follows: Surface plasmon resonance (SPR) assay. Format: binding. The note with it: immobilized PfLysRS; for pKd: 1 mM L-lysine in running buffer, read-out: dissociation constant (KD). How it is done:
PfLysRS was chemically immobilized on a Biacore CM5 sensorchip (immobilization level ~20000 resonance unit/RU) at pH 5.0 according to the immobilization kit (GE Healthcare). PfLysRS (1.7 nM) was captured for 90 s at a flow of 30 µL·min^−1. Affnity between PfLysRS and compounds was measured by SPR on a Biacore 8 K (GE Healthcare) at 25 °C with a running buffer (0.02 M phosphate buffer pH 7.4, 2.7 mM KCl, 0.137 M NaCl, 0.05% Tween 20, with 1 mM L-lysine). The association time was 90 s, the dissociation time was 120 s, and the flowrate was 30 µL·min^−1. Kinetic evaluation of the interaction between LysRS and compounds was performed by global fitting of the data to a 1:1 interaction model using Biacore Evaluation Software 3.1 (GE Healthcare).
Background: Surface plasmon resonance follows binding to a sensor surface in real time, without labels.

For data set [3], the system named is HepG2 cells. The data set is described as follows: Cytotoxicity assay (CCK-8). Format: cell-based, human. The note with it: HepG2, 72 h. How it is done: as §1, §2

We go through two compounds from PMC11189516, “Structure-guided conversion from an anaplastic lymphoma kinase inhibitor into Plasmodium lysyl-tRNA synthetase selective inhibitors” (Communications Biology, 2024).

pKd: −log10 of the molar value.

T1 sequence (Q8IDJ8 entry or part of it): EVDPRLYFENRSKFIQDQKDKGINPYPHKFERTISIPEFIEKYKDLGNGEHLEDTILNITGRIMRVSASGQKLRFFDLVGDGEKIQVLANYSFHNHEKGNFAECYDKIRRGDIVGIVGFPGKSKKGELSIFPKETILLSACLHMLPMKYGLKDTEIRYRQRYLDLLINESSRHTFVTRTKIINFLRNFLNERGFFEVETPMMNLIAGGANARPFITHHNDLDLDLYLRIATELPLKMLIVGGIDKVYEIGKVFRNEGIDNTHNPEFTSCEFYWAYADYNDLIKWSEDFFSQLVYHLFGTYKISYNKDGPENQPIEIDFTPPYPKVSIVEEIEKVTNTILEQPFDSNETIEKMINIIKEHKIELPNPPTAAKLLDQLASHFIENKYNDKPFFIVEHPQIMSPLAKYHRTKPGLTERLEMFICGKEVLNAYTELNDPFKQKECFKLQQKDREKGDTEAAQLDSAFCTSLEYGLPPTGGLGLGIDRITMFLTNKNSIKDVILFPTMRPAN

Regarding `COc1ccccc1Nc1ncnc(Nc2ccccc2S(=O)(=O)C(C)C)n1` [Compound 38], the CC50 (in general, the concentration giving 50% cytotoxicity) at 72 h in data set [1] was 7.7 µM. In data set [2], the koff (commonly the first-order rate constant of dissociation) was determined as 0.0137 s⁻¹; the kon was found to be 218000 M/s; the pKd – broadly, the negative decadic logarithm of the Kd, by convention in mol/L – was 7.20.

On to `COc1ccc(OC)c(Nc2ncnc(Nc3ccccc3S(=O)(=O)C(C)C)n2)c1` [Compound 36], for which, in data set [3], the “cytotoxicity to HepG2” value is on record as “no significant toxicity”. In data set [2], the off-rate (koff) is 0.0144 s⁻¹, the kon came to 907000 M/s and the pKd was 7.80.
